{"source": "ChEMBL document CHEMBL1201862", "about": "“PubChem BioAssay data set” (2004)", "key": {"[1]": {"target": "Potassium channel subfamily K member 9 (Homo sapiens, UniProt Q9NPC2)", "sequence (Q9NPC2 whole entry)": "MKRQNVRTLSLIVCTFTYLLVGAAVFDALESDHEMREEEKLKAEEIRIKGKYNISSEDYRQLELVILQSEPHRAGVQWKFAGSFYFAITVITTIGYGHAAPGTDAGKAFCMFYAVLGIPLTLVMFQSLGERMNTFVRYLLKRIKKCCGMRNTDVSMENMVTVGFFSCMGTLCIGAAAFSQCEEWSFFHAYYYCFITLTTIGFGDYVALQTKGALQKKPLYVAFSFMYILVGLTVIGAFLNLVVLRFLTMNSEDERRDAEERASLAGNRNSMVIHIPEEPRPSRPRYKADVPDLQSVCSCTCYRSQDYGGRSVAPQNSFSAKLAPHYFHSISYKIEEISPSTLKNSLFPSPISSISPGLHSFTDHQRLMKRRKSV", "experiment": "KCNK9 flux blockade, concentration-response – cell-based, FluxOR thallium flux, selectivity assay for TASK1 inhibitor project, SAR follow-up (AID 652211);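 note: potency is for inhibitors of the channel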", "format": "functional"}, "[2]": {"target": "1-phosphatidylinositol 4,5-bisphosphate phosphodiesterase gamma-1 (Homo sapiens, UniProt P19174)", "sequence (P19174 whole entry)": "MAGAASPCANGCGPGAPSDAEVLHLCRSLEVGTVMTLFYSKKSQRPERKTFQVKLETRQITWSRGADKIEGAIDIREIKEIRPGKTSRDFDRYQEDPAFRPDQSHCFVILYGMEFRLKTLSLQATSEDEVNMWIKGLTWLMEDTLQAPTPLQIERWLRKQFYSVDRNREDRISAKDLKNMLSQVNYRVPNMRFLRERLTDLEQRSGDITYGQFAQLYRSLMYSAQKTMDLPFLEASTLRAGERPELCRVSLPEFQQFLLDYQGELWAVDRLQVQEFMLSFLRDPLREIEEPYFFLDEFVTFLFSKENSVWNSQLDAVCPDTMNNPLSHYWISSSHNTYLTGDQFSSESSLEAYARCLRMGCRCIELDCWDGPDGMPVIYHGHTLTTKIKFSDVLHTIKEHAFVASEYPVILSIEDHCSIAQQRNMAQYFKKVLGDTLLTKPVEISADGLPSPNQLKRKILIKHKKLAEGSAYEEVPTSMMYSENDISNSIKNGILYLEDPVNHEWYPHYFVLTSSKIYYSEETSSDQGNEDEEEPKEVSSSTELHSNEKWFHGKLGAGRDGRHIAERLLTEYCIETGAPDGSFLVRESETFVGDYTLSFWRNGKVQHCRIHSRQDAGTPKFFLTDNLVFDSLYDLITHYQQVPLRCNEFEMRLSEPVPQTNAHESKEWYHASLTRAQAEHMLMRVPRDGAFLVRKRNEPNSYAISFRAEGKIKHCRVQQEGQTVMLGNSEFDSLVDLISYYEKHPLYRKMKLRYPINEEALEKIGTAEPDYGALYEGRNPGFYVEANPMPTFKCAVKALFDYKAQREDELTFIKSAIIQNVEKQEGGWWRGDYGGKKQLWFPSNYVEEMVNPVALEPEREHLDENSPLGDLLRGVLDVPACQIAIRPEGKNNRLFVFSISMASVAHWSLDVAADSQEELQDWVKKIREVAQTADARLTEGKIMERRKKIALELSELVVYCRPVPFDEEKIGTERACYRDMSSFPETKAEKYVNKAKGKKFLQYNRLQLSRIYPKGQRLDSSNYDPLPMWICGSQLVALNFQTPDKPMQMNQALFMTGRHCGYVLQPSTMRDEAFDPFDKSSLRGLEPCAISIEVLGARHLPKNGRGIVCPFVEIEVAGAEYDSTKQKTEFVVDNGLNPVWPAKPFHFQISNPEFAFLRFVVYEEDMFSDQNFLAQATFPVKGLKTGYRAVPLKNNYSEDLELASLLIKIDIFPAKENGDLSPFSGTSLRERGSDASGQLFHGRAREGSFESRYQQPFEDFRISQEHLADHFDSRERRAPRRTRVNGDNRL", "experiment": "Counterscreen for inhibitors of phospholipase C isozymes (PLC-B3): Fluorescence-based biochemical high throughput dose response assay to identify inhibitors of phospholipase C isozymes (PLC-gamma1)."}, "[3]": {"target": "Heat shock protein HSP 90-alpha (Homo sapiens, UniProt P07900)", "format": "functional, organism-based"}, "[4]": {"experiment": "fluconazole-exposed Candida albicans growth modulators – fluorescence, retest, confirmation (AID 2467)", "format": "functional, cell-based"}, "[5]": {"target": "ATP-dependent molecular chaperone HSP82 (Candida albicans (strain WO-1) (Yeast), UniProt C4YTQ8)", "sequence (C4YTQ8 whole entry)": "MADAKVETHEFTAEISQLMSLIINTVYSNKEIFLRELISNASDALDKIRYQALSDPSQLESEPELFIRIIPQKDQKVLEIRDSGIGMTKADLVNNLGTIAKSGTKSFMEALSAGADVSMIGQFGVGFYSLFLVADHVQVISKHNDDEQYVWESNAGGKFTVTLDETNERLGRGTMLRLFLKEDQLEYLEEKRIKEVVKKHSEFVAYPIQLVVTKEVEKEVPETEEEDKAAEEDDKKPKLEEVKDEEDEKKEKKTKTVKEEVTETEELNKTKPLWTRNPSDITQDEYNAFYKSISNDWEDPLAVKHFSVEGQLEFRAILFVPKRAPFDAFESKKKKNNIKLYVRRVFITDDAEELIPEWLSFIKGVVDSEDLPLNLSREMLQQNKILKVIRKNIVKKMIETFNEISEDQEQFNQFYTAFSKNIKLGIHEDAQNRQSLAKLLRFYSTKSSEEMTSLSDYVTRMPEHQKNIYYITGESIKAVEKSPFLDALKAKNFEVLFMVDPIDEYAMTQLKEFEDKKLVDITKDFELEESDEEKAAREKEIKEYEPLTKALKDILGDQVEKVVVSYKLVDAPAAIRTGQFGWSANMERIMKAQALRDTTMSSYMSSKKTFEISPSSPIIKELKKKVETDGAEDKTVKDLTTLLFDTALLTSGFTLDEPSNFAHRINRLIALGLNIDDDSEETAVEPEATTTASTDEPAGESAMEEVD", "experiment": "steroid-induced GRE reporter decrease in yeast – S. cerevisiae, luminescence, Hsp90 inhibitor project, dose response (AID 2400);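 note: beta-galactosidase luminescence from glucocorticoid response element reporter as proxy for Hsp90 function; inhibitor potency where signal loss means Hsp90 inhibition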", "format": "functional, cell-based"}, "[6]": {"target": "T1, Serine/threonine-protein phosphatase (Candida dubliniensis (strain CD36 / CBS 7987 / NCPF 3949 / NRRLY-17841) (Yeast), UniProt B9W6M3)", "T1 sequence (B9W6M3 whole entry)": "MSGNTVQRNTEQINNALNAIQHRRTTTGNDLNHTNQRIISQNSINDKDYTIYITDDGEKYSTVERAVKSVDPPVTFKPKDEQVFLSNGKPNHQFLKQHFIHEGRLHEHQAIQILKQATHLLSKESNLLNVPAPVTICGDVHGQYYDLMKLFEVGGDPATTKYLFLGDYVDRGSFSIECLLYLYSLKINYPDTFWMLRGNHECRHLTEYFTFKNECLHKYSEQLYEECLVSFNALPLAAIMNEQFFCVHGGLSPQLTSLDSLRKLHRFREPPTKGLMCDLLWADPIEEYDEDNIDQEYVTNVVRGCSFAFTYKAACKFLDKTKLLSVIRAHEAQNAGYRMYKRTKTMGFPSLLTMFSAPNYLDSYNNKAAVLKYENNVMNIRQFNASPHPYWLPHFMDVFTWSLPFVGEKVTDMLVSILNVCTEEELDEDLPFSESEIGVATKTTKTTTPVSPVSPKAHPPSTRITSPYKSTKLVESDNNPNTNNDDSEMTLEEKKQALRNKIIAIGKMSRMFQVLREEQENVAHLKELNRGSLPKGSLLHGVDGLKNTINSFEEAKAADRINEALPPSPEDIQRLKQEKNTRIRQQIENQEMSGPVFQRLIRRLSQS", "experiment": "blockers of CaCl2-induced CDRE-lacZ signaling – S. cerevisiae, luminescence, secondary, dose response (AID 2388);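 note: yeast reporter cells carrying a calcineurin-responsive lacZ construct stimulated with calcium chloride; luminescent beta-galactosidase reporter signal in whole cells rather than isolated phosphatase activity; potency for inhibition where a drop in reporter signal means calcineurin blockade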", "format": "functional, cell-based"}, "[7]": {"target": "1-phosphatidylinositol 4,5-bisphosphate phosphodiesterase beta-3 (Homo sapiens, UniProt Q01970)", "sequence (Q01970 whole entry)": "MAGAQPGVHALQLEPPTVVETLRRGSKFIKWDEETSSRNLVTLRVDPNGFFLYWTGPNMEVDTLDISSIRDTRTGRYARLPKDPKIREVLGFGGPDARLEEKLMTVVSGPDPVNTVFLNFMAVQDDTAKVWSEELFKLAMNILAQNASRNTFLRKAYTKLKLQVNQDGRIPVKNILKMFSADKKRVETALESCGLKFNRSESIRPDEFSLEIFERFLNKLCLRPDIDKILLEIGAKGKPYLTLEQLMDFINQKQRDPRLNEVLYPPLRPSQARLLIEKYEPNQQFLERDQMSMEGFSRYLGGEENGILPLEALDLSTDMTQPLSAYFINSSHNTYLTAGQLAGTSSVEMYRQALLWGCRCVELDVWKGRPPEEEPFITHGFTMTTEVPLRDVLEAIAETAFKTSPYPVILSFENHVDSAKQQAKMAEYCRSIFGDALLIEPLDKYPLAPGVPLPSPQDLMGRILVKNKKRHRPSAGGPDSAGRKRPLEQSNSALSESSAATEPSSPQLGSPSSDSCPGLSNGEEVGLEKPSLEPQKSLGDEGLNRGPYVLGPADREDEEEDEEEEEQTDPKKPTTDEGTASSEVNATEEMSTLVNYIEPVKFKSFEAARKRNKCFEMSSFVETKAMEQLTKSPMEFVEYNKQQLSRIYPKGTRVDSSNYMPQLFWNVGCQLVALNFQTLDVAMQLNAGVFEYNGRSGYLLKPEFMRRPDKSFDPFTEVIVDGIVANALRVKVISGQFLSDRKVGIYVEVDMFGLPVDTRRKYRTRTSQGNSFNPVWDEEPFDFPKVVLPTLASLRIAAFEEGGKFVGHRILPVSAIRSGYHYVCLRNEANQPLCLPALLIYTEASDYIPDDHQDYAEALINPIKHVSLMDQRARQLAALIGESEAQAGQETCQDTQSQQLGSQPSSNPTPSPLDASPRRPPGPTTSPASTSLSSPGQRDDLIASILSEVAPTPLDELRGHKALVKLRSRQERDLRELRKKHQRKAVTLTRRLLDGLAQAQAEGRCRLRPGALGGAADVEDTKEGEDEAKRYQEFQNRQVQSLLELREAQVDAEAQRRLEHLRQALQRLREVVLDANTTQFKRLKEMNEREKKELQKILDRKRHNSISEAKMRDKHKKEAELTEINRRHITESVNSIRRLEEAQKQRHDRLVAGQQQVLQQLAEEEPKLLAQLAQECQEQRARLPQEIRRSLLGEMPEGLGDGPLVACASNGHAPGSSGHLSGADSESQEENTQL", "experiment": "Fluorescence-based biochemical high throughput dose response assay to identify inhibitors of phospholipase C isozymes (PLC-B3)."}, "[8]": {"experiment": "NIH-3T3 fibroblast cytotoxicity, dose response, cytotoxicity control, cell-based, fluorescence, Alamar Blue, secondary assay (AID 2327);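 note: NIH-3T3 mouse fibroblasts cultured with fluconazole at 8 µg/mL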", "format": "functional"}, "[9]": {"system": "Vero", "experiment": "viability loss in Vero cells – cell-based, plate reader, cherry-pick samples, cytotoxicity control, dose response (AID 687020)", "format": "functional", "conditions": "Chlorocebus sabaeus"}, "[10]": {"system": "A549", "experiment": "viability loss in A549 cells – cell-based, plate reader, cherry-pick samples, cytotoxicity control, dose response (AID 687028)", "format": "functional", "conditions": "Homo sapiens"}, "[11]": {"experiment": "cells", "format": "functional, cell-based"}, "[12]": {"target": "T2, Trace amine-associated receptor 1 (Homo sapiens, UniProt Q96RJ0)", "T2 sequence (Q96RJ0 whole entry)": "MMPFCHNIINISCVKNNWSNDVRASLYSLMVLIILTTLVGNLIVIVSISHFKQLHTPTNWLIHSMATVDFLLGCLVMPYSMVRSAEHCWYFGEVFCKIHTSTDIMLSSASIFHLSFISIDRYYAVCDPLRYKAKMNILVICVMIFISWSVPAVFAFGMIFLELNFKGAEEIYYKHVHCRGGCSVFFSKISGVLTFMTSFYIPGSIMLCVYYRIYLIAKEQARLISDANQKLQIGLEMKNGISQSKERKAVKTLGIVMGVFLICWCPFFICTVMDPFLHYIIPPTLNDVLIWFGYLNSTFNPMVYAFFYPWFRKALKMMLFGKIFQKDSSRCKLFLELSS", "experiment": "Counterscreen for agonists of the human trace amine associated receptor 1 (hTAAR1): Fluorescence-based cell-based high throughput dose response assay to identify hTAAR1 agonist that also desensitize TAAR1 receptor response.", "format": "functional"}, "[13]": {"experiment": "cells", "format": "functional, cell-based", "remark": "listed apart in the source"}, "[14]": {"target": "T2, Trace amine-associated receptor 1", "experiment": "Fluorescence-based cell-based high throughput dose response assay to identify agonists of the human trace amine associated receptor 1 (TAAR1).", "format": "functional"}, "[15]": {"experiment": "cells", "format": "functional, cell-based", "conditions": "HEK-CNG"}, "[16]": {"experiment": "loss of viability in HepG2 cells – cell-based, CellTiter-Glo, cherry-picked, cytotoxicity control for Shn3 inhibitor project, dose response (AID 624134)", "format": "functional"}, "[17]": {"experiment": "reduction of Shn3 3'UTR-driven luciferase in osteoblasts – cell-based, Clone20 osteoblasts, firefly luciferase, cherry-picked, dose response (AID 624132)", "format": "functional"}, "[18]": {"experiment": "non-specific 3'UTR reporter inhibition in Clone20-Shn3RL – cell-based, Renilla luciferase, cherry-picked, counter-screen for Shn3 inhibitor project, dose response (AID 624133)", "format": "functional"}, "[19]": {"target": "T3, Galanin receptor type 3 (Homo sapiens, UniProt O60755)", "T3 sequence (O60755 whole entry)": "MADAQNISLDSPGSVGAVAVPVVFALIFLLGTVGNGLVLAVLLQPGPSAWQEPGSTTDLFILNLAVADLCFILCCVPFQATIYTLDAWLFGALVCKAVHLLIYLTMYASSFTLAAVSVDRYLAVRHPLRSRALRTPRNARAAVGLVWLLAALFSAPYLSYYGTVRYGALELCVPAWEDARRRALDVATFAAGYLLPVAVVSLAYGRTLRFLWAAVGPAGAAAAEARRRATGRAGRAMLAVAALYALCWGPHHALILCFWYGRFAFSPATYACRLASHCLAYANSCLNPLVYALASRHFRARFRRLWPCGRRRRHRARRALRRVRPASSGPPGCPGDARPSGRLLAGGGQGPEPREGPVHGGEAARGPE", "experiment": "Fluorescence-based cell-based primary high throughput dose response assay to identify antagonists of the Galanin Receptor 3 (GalR3).", "format": "functional"}, "[20]": {"experiment": "Shn3 3'UTR reporter signal decrease – cell-based, Clone20 osteoblasts, firefly luciferase, cherry-pick, set 2, Schnurri-3 inhibitor project, dose response (AID 720490)", "format": "functional"}, "[21]": {"experiment": "viability of HCT116 lacking mutant beta-catenin – cell-based, human colon tumor, dose response (AID 1045);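 note: HCT116 colon tumor cells with beta catenin knocked out; cells exposed to compound for 60 hours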", "format": "functional"}, "[22]": {"experiment": "EF1alpha-driven Renilla reporter with control 3'UTR suppression – Clone20-Shn3RL cells, dual-Glo, cherry-pick, set 2, counter-screen for Shn3 3'UTR targeting project, dose response (AID 720724)", "format": "functional, cell-based", "conditions": "Dual-Go Shn3RL"}, "[23]": {"target": "Endoplasmic reticulum aminopeptidase 1 (Homo sapiens, UniProt Q9NZ08)", "sequence (Q9NZ08 whole entry)": "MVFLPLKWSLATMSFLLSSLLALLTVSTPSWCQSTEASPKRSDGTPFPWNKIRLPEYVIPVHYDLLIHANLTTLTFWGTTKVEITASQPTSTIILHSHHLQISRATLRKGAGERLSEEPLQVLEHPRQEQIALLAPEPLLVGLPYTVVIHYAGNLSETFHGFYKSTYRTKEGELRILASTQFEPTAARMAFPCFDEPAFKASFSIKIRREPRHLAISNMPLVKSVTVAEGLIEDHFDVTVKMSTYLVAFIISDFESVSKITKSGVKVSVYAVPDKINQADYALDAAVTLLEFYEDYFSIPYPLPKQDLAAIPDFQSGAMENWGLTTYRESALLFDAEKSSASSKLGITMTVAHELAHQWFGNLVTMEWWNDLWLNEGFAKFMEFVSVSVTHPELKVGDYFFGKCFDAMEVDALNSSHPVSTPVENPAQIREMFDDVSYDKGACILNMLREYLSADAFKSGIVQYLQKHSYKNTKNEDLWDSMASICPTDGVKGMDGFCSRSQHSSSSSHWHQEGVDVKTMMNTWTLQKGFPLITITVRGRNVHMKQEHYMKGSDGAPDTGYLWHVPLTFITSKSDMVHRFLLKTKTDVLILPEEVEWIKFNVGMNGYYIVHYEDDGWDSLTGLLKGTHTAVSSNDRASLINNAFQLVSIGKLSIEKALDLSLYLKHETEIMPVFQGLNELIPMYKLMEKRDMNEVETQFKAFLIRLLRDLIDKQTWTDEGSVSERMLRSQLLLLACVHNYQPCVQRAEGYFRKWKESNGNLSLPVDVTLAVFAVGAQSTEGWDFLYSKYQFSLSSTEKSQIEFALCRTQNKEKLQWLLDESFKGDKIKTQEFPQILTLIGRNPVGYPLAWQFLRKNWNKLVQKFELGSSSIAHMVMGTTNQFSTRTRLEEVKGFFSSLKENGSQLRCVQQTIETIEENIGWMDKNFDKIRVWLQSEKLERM", "experiment": "inhibition of human ERAP1 enzyme activity – biochemical, cherry-pick, set 2, plate reader, dose response (AID 743314)"}, "[24]": {"experiment": "cells", "format": "functional, cell-based", "remark": "listed apart in the source"}, "[25]": {"target": "Nuclear receptor subfamily 0 group B member 1 (Homo sapiens, UniProt P51843)", "format": "functional, cell-based"}, "[26]": {"system": "BJ", "experiment": "BJ-TERT fibroblast viability loss – cell-based, RAS-independent, luminescence, dose response (AID 1933)", "format": "functional", "conditions": "Homo sapiens"}, "[27]": {"target": "Luciferin 4-monooxygenase (Photinus pyralis, UniProt P08659)", "experiment": "inhibition of purified Photinus pyralis luciferase – biochemical, luminescence, dose response (AID 1891)"}, "[28]": {"system": "INS1", "experiment": "INS-1E survival protection against cytokine death – cell-based, luminescence, retest, dose response (AID 449756);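 note: cell death triggered by IL-1 beta plus TNF-alpha plus IFN-gamma mixture; protective hits raise ATP signal compared with cytokine alone wells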", "format": "functional", "conditions": "Rattus norvegicus"}, "[29]": {"experiment": "viability loss in HepG2 hepatoma cells – cell-based, ATP luminescence, cherry-pick, activator set 2, cytotoxicity control, dose response (AID 1053143)", "format": "functional"}, "[30]": {"experiment": "Luminescence Cell-Based Dose Confirmation HTS to Identify Inhibitors of Platelet Dense Granule Release. [Related pubchem assays: 1663 (Primary HTS), 1678 (Summary of Project)]", "format": "functional"}, "[31]": {"experiment": "DRD fibroblast viability loss – cell-based, non-viral oncogenic, luminescence, dose response (AID 1934)", "format": "functional", "conditions": "Homo sapiens"}, "[32]": {"system": "BJ", "experiment": "cells", "format": "functional, cell-based, Homo sapiens", "conditions": "Homo sapiens, BJ"}, "[33]": {"system": "BJ", "experiment": "BJ-TERT-LT-ST fibroblast viability loss – cell-based, RAS-independent, luminescence, dose response (AID 1935);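 note: BJ fibroblasts immortalized with TERT plus LT and ST oncogenes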", "format": "functional", "conditions": "Homo sapiens"}, "[34]": {"system": "BJ", "experiment": "growth inhibition of engineered Ras-driven BJ cells – cell-based, alamar blue fluorescence, cherrypicked samples, dose response (AID 2631)", "format": "functional", "conditions": "Homo sapiens"}}, "note": "Active and inactive are the calls of the source.", "data": [{"smiles": "Cc1cccc(C(=O)Nc2cccc(NC(=O)c3cccc(Cl)c3)c2)c1", "values": [{"measurement": "IC50", "setting": "[1]", "result": "13.4 µM (active)"}]}, {"smiles": "N=C(Cc1ccc(Cl)c(Cl)c1)NOC(=O)c1cccs1", "values": [{"measurement": "IC50", "setting": "[2]", "result": "> 122 µM (inactive)"}, {"measurement": "AC50", "setting": "[3]", "result": "3.01 µM (active)"}, {"measurement": "EC50", "setting": "[4]", "result": "0.376 µM (active)"}, {"measurement": "EC50", "setting": "[5]", "result": "11.6 µM (active)"}, {"measurement": "EC50", "setting": "[6]", "result": "> 180 µM (inactive)"}, {"measurement": "IC50", "setting": "[7]", "result": "> 122 µM (inactive)"}, {"measurement": "EC50", "setting": "[8]", "result": "> 160 µM (inconclusive)"}]}, {"smiles": "O=C(CN1CCN(C(=O)C2CCC2)CC1)Nc1ccc(F)cc1", "values": [{"measurement": "AC50", "setting": "[9]", "result": "28.2 µM (active)"}, {"measurement": "AC50", "setting": "[10]", "result": "21.4 µM (active)"}]}, {"smiles": "Cc1ccc(NC(=O)CCN2CCc3ccccc3C2)cc1", "values": [{"measurement": "IC50", "setting": "[11]", "result": "> 29.9 µM (inactive)"}, {"measurement": "IC50", "setting": "[12]", "result": "7.46 µM (active)"}, {"measurement": "EC50", "setting": "[13]", "result": "> 29.9 µM (inactive)"}, {"measurement": "EC50", "setting": "[14]", "result": "1.12 µM (active)"}]}, {"smiles": "CCCOC(=O)c1ccc(OCC(O)Cn2c(C)nc3ccccc32)cc1", "note": "(centres undefined)", "values": [{"measurement": "EC50", "setting": "[15]", "result": "> 29.9 µM (inactive)"}, {"measurement": "AC50", "setting": "[16]", "result": "35.6 µM (active)"}, {"measurement": "AC50", "setting": "[17]", "result": "0.62 µM (active)"}, {"measurement": "AC50", "setting": "[18]", "result": "8.49 µM (active)"}, {"measurement": "IC50", "setting": "[19]", "result": "1.57 µM (active)"}, {"measurement": "AC50", "setting": "[20]", "result": "3.38 µM (active)"}, {"measurement": "EC50", "setting": "[21]", "result": "14.6 µM (active)"}, {"measurement": "AC50", "setting": "[22]", "result": "5.13 µM (active)"}]}, {"smiles": "Cc1c(C)c2ccc(O)c(CN3CCCC3)c2oc1=O", "values": [{"measurement": "AC50", "setting": "[23]", "result": "7.31 µM (active)"}]}, {"smiles": "CS(=O)(=O)c1cccc(C(=O)Nc2ccc(-c3nc4ccccc4[nH]3)cc2)c1", "values": [{"measurement": "IC50", "setting": "[24]", "result": "> 67.5 µM (inactive)"}, {"measurement": "IC50", "setting": "[25]", "result": "> 67.5 µM (inactive)"}]}, {"smiles": "Cc1occc1C(=O)N/N=C/c1ccc2c(c1)OCO2", "values": [{"measurement": "EC50", "setting": "[26]", "result": "8.43 µM (active)"}, {"measurement": "EC50", "setting": "[27]", "result": "1.4 µM (active)"}, {"measurement": "AC50", "setting": "[28]", "result": "4.17 µM (active)"}, {"measurement": "AC50", "setting": "[29]", "result": "8.12 µM (active)"}, {"measurement": "EC50", "setting": "[30]", "result": "1.77 µM (active)"}, {"measurement": "EC50", "setting": "[31]", "result": "5.68 µM (active)"}, {"measurement": "EC50", "setting": "[32]", "result": "7.36 µM (active)"}, {"measurement": "EC50", "setting": "[33]", "result": "16.8 µM (active)"}, {"measurement": "EC50", "setting": "[34]", "result": "> 133 µM (inactive)"}]}]}
